Source: patent US5529998A, “Benzoxazolyl- and benzothiazolyloxazolidinones” (Bayer Aktiengesellschaft, priority 1994, dated 1996)
In brackets after ≈: the same amount, converted by molar mass.

Tests used:
Assay in all cases: MIC, antibacterial activity (series dilution)
Assay type in all cases: cell-based
[1] = test system: E. coli Neumann; settings: Escherichia coli, 37° C., about 20 hours
Method: (§1) The MIC values were determined with the aid of the microdilution method in BH medium. Each test substance was dissolved in the nutrient medium. A concentration series of the test substances was prepared in the microtiter plate by serial dilution. Overnight cultures of the pathogens, which were first diluted 1:250 in the nutrient medium, were used for the inoculation. 100 μl portions of inoculation solution were added to 100 μl of the dilute nutrient solutions containing the active compound. The microtiter plates were incubated at 37° C. and read off after about 20 hours. The MIC value (μg/ml) indicates the lowest concentration of active compound at which no growth was detectable. The minimum inhibitory concentrations (MIC) were determined by the series dilution method on Iso-Sensitest agar (Oxoid). A series of agar plates which contained concentrations of the active compound which decreased by two-fold dilution each time was prepared for each test substance. The agar plates were inoculated with a multipoint inoculator (Denley). Overnight cultures of the pathogens which had been diluted beforehand such that each inoculation point contained about 10^4 colony-forming particles were used for the inoculation. The inoculated agar plates were incubated at 37° C. and the germ growth was read off up to about 20 hours. The MIC value (μg/ml) indicates the lowest concentration of active compound at which no growth was detectable with the naked eye.

[2] = test system: Klebs. 57 USA; settings: 37° C., about 20 hours
Method: as §1

[3] = test system: Psdm. Bonn; settings: 37° C., about 20 hours
Method: as §1

[4] = test system: Staph 25701; settings: 37° C., about 20 hours
Method: as §1

[5] = test system: Staph. 133; settings: 37° C., about 20 hours
Method: as §1

[6] = test system: Staph. 48N; settings: 37° C., about 20 hours
Method: as §1

[7] = test system: Staph. 9TV; settings: 37° C., about 20 hours
Method: as §1

SMILES	MIC [1] [µg/mL]	MIC [2] [µg/mL]	MIC [3] [µg/mL]	MIC [4] [µg/mL]	MIC [5] [µg/mL]	MIC [6] [µg/mL]	MIC [7] [µg/mL]
CC(=O)NC[C@H]1CN(c2ccc3nc([S+](C)[O-])sc3c2)C(=O)O1 (stereo partly drawn) [Example 32, (5S)-3-(2-Methylsulphinyl-benzo[4,5-d]-thiazol-6-yl)-5-acetylaminomethyl-oxazolidin-2-one]	> 64	> 64	> 64	1 (≈ 2.83 µM)	1 (≈ 2.83 µM)	2 (≈ 5.66 µM)	0.5 (≈ 1.41 µM)
CC(=O)NC[C@H]1CN(c2ccc3nc(S(=O)(=O)Cc4ccccc4)sc3c2)C(=O)O1 [Example 33, (5S)-3-(2-Benzylsulphonyl-benzo[4,5-d]thiazol-6-yl)-5-acetylaminomethyloxazolidin-2-one]	> 64	> 64	> 64	2 (≈ 4.49 µM)	4 (≈ 8.98 µM)	2 (≈ 4.49 µM)	4 (≈ 8.98 µM)
CC(=O)NC[C@H]1CN(c2ccc3nc([S+]([O-])Cc4ccccc4)sc3c2)C(=O)O1 (stereo partly shown) [Example 36]	> 64	> 64	> 64	4 (≈ 9.31 µM)	4 (≈ 9.31 µM)	4 (≈ 9.31 µM)	2 (≈ 4.66 µM)
CC(=O)NC[C@H]1CN(c2ccc3nc(S(C)(=O)=O)sc3c2)C(=O)O1 [Example 37]	> 64	> 64	> 64	1 (≈ 2.71 µM)	2 (≈ 5.41 µM)	2 (≈ 5.41 µM)	1 (≈ 2.71 µM)

Next, values leading:

MIC [1] [µg/mL]	MIC [2] [µg/mL]	MIC [3] [µg/mL]	MIC [4] [µg/mL]	MIC [5] [µg/mL]	MIC [6] [µg/mL]	MIC [7] [µg/mL]	SMILES
> 64	> 64	> 64	0.25 (≈ 0.741 µM)	2 (≈ 5.93 µM)	1 (≈ 2.96 µM)	0.25 (≈ 0.741 µM)	CSc1nc2ccc(N3C[C@H](CNC(C)=O)OC3=O)cc2s1 [Example 24, (5S )-3-(2-Methylthio-benzo[4,5-d]thiazol-6-yl)-5-acetylaminomethyl-oxazolidin-2-one]
> 64	> 64	> 64	1 (≈ 3.46 µM)	2 (≈ 6.91 µM)	1 (≈ 3.46 µM)	1 (≈ 3.46 µM)	CC(=O)NC[C@H]1CN(c2ccc3nc(C)oc3c2)C(=O)O1 [Example 25, (5S)-3-(2-Methyl-benzo[4,5-d]oxazol-6-yl)-5-acetamino-methyl-oxazolidin-2-one]
> 64	> 64	> 64	1 (≈ 3.27 µM)	2 (≈ 6.55 µM)	1 (≈ 3.27 µM)	1 (≈ 3.27 µM)	CC(=O)NC[C@H]1CN(c2ccc3nc(C)sc3c2)C(=O)O1 [Example 26]
